A word on the MTD: it is the largest dose that counted as tolerated. Low values mean poorer tolerability, high ones better tolerability. In general, half-life refers to the time in which the quantity being followed falls by half.

“Also recorded” adds a separate entry of the source. Where two headings read alike, the source gives them in different places.

In data set [1] the test system is primary cultured spinal cord dorsal horn neurons. In words: Dendritic spine density in primary cultured neurons with PAK1 inhibitor. Format: cell-based. To be noted: PAK1 inhibitor treatment; FIG. 11. Here is the method:
To assess whether PAK1 inhibition would disrupt dendritic spines, a morphological correlate of spasticity, the effect of a non-pharmaceutical grade PAK1 inhibitor, IPA3, on primary cultured spinal cord dorsal horn neurons was measured using previous methods (Tan et al., 2011).

In another data set the test system is SCI-induced spasticity. The data set is described as follows: Evoked H-reflex EMG recordings (rate-dependent depression) in SCI spasticity model. Format: in vivo, mouse. Here is the method:
(§1) As detailed elsewhere herein, the feasibility of “repurposing” a clinically approved drug to address spasticity in SCI will be evaluated. Here, testing the efficacy of romidepsin, an FDA-approved drug, to reduce PAK1 activity in the spinal cord and SCI-induced spasticity has begun. […] Initial test dosages were calculated from human trial data using FDA guidelines for converting drug dosage from human to animal.
Study Design: Four animal groups were prepared (adult m/f mix; 6-8 weeks old; n=60/group); 1) Sham+DMSO/vehicle, 2) Sham+Romidepsin, 3) SCI+DMSO/vehicle, and 4) SCI+Romidepsin. […]
H-reflex electrophysiology-EMG recordings of evoked H-reflex will be performed in the plantar muscle group (Bandaru et al., 2015; Benson et al., 2017; Boulenguez et al., 2010; Nielsen et al., 2007). […] Three trials (10 sweeps/trial) will be recorded for each paired-pulse. Rectified traces will be analyzed. […] The H/M ratio will be calculated using the peak amplitude of M-wave and H-reflex following the test pulse. H-reflex EMG studies provide specific readout only of the monosynaptic circuit, and is therefore an accurate measure of the spinal stretch reflex response without the confounds of supraspinal, interneuronal, or other motor neuron sub-type input (Nielsen et al., 2007).

The subject of data set [2] is acetyl histone-H3. The following applies: injected intraperitoneally; within 24-hours post-administration; dorsal horn L4 (Guo et al., 2018); FIG. 25; cited from earlier work.
For data set [3], the system named is acetyl histone-H3. It counts as in vivo, mouse. To be noted: vs control treated animal tissues; FIG. 17. The method, then: as §1
To monitor in vivo drug-response using established clinical biomarkers from all animals before and after treatment with romidepsin, histone acetylation was assessed in spinal cord tissue, peripheral blood mononuclear cells (PBMCs), and monocytes from CSF (i.e., ELISA pharmacodynamics assessment) (Cotto et al., 2010); VanderMolen et al., 2011). Liquid samples were collected using routine blood or spinal CSF draws.
(§2) To monitor in vivo drug-response using established clinical biomarkers from all animals before and after intrathecal treatment with romidepsin at MTD, histone acetylation in peripheral blood mononuclear cells (PBMCs) or lymphocytes/monocytes in CSF (i.e., ELISA pharmacodynamics assessment) will be assessed (Cotto et al., 2010; VanderMolen et al., 2011). […]

A further data set relates to SCI mouse model. In words: Maximum tolerated dose in SCI mouse model (weight loss, paw grip-strength, mobility). Format: in vivo. The method, then: as §1
(§3) Vehicle (1% DMSO) was used as a control treatment.

Experiment in data set [4]: as above
Format: in vivo. To be noted: mouse, in vivo; once/day for 3 days; 10 μl per IP injection; diluted in 1% DMSO. The method, then: as §1, §3

For data set [5], the system named is nerve injury-induced chronic pain. The data set is described as follows: Spared nerve injury (SNI) pain model, mechanical-evoked pain. It counts as in vivo. The following applies: mouse SNI, IP once/day for 5 days at 0.25 mg/kg, FIG. 27. An excerpt:
An SNI is a transection-type peripheral nerve injury model, whereby a portion of the sciatic nerve innervating the hindlimb is ligated and cut. In this nerve injury model, the common peroneal and tibial nerves are injured, producing consistent and reproducible pain hypersensitivity in the cutaneous territory of the spared sural nerve. Additionally, the SNI leads to prolonged mechanical and thermal hyperresponsiveness in behavioral studies, which closely mimic clinically-described neuropathic pain conditions (Cichon et al., 2018). With an SNI, adult mice rapidly develop maximal neuropathic pain sensitivity within 3 days post-SNI (Benson et al., 2020; Cichon et al., 2018).
To evaluate the efficacy of romidepsin in treating nerve-induced chronic pain, the following comparator groups were prepared (weight-matched, adult male/female equally mixed C57BL/6 mice): Sham (n=5), SNI+Vehicle (n=5), and SNI+romidepsin (n=5). Romidepsin was administered as an intraperitoneal (IP) injection for five consecutive days after SNI (once/day for 5 days: 5 μl per injection at 0.25 mg/kg). Vehicle administration route was the same as romidepsin (1% diluted in DMSO; IP route), and sham animals underwent all procedures except for nerve injury.

The conditions of data set [6]: cited from earlier work.
The next data set deals with PAK1 (Homo sapiens, UniProt Q13153). The following applies: cited from earlier work.
The test system of another data set is p-Raf. The data set is described as follows: p-Raf expression in spinal cord neurons (histological analysis). It counts as in vivo, mouse. To be noted: spinal cord after SCI; FIG. 16.
From the text: Outcome Measures: On days 14, 28, and 35 post-SCI, spinal cord and brain tissue were collected for histological analyses. Tissue was processed using SWITCH clearing and immunohistochemistry performed to analyze protein expression levels of inflammatory markers, i.e., GFAP/OX42 for astro/microgliosis, cfos, p38, p-Raf, or PAK1 activity (Stamboulian et al., 2010); Tan et al., 2011; Tan et al., 2008). Because mice are Thy1-GFP transgenic animals, α-motor neurons were identified using established morphological criteria, including soma size and topographical location (Bandaru et al., 2015; Tan et al., 2012a). GFP-expressing dendritic spines were visualized, and their morphology profiled in association with spasticity. All data was statistically compared across groups (Bandaru et al., 2015; Zhao et al., 2016). To determine the efficacy of romidepsin treatments on SCI-induced spasticity, anatomical and biochemical data were correlated with spasticity outcomes. […]
as §2

The test system of a further data set is humans. The following applies: human, in vivo; cited from earlier work.
For another data set, the system named is adult mice. To be noted: mouse, in vivo.

Sequence of PAK1 (Q13153 whole entry): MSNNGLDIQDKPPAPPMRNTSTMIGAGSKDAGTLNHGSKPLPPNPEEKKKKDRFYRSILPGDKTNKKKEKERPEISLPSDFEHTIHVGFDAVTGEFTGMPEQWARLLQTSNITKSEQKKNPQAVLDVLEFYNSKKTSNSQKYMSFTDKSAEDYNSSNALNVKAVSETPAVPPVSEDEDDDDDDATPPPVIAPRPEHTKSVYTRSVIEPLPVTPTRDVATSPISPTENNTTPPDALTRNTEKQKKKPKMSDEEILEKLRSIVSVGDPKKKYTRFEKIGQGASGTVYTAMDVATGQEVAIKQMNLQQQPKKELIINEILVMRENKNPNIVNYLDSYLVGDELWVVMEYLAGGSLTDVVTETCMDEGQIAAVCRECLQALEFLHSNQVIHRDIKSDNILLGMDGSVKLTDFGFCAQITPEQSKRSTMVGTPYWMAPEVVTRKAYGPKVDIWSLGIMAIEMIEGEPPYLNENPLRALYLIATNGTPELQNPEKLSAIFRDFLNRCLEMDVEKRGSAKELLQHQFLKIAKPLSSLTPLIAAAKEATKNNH
Procedure for adult mice: Rationale for Dosing: These initial romidepsin dosages were determined on two interrelated rationales. […] 2) Because it is expected that the utility of romidepsin for pain mitigation would likely require longer-term use than for the oncology indication, a pilot study in mice was performed with a lower dose of romidepsin for a prolonged period of time (once daily injections up to 14 days).

For `Oc1ccc2ccccc2c1SSc1c(O)ccc2ccccc12` [IPA3], the dendritic spine density entry in data set [1] is on record as “decreases”.

Consider `C/C=C1\NC(=O)[C@H]2CSSCC/C=C/[C@H](CC(=O)N[C@H](C(C)C)C(=O)N2)OC(=O)[C@H](C(C)C)NC1=O` [romidepsin], for which the “RDD of H-reflex (spasticity)” value in the data set with SCI-induced spasticity (SCI animals vs vehicle control, preliminary EMG studies, FIG. 13) was “partially restored RDD; also recorded: partial reduction in spasticity”. Also, the “RDD of H-reflex (H/M ratio)” value in the data set on SCI-induced spasticity (SCI mice, IP injection at 0.25 mg/kg vs control vehicle, FIG. 15, 0.25 mg/kg) is “significant restoration of rate-dependent depression (RDD)”. Besides, the “histone acetylation in neurons” value in the data set with acetyl histone-H3 [2] is given as “upregulation of histone acetylation in neurons; also recorded: upregulation in acetyl histone-H3 in neurons”. The “H3 density in spinal cord tissues” value with acetyl histone-H3 [3] is reported as “significant increase in H3 density”. The “maximum tolerated dose (MTD)” value in the data set with SCI mouse model (SCI mouse model, once/day IP injection over 3 days, 0.1 ml) came out at 1.25 mg/kg/injection. In the data set with SCI mouse model (mouse, in vivo), the body weight result is listed as “does not affect” and the paw-grip strength result is listed as “does not affect”. The same molecule displayed a maximum tolerated dose (MTD) at 3 days in data set [4] of 1.25 mg/kg. In addition, the mechanical-evoked pain entry in data set [5] was “significant decrease in mechanical-evoked pain; also recorded: significantly decreases mechanical-evoked pain”. Moreover, the “blood brain barrier (BBB) penetration” value in [6] (administered systemically in non-human primates or rodents/rats, drug and active metabolites) is given as “can passively penetrate through the blood brain barrier (BBB) in relatively low concentrations”. Besides, in data set [6] (depending on the organism (Berg et al., 2004)), the half-life was less than 10 h. For the same molecule, in data set [6] (published PK/PD studies (Berg et al., 2004)), the half-life was less than 10 h. Moreover, in [6] (published human PK/PD studies (Berg et al., 2004)), the half-life was less than 10 h. Also, the “concentrations that significantly reduce PAK1 kinase activity” value on PAK1 (Hirokawa et al., 2005, Maruta, 2011) was 0.1 to 1 nM. In addition, the PAK1 protein level result at PAK1 (at 0.1-1 nM) was “without changing”. In the data set on p-Raf, the “expression of p-Raf on Thy-YFP expressing cells (neurons)” value was “significantly decreases”. The “occurrence of adverse reactions (grade 3 or 4) related to weight loss and fatigue” value in the data set on humans is listed as 2-8%. Moreover, in the data set with adult mice, the “adverse effects (ambulation, body mass loss, outward signs of toxicity)” value is listed as “no observable adverse effects” and the food intake entry is “appeared the same”.

The record behind these values is patent US20240335503A1, “ROMIDEPSIN AS A THERAPEUTIC AGENT FOR NERVE-INJURY INDUCED NEUROPATHIC PAIN AND SPASTICITY” (The United States Government as represented by the …, priority 2021, published 2024).
